26 molecules from patent US7863312B2, “Pyrazolidinone compounds as ligands of the prostaglandin EP2 and/or EP4 receptors” (Merck Serono SA, priority 2001, dated 2011) can be followed below.

Usually Ki stands for the dissociation constant of the complex between target and ligand, obtained from inhibition or displacement. Broadly, the EC50 is the concentration giving half of the maximal effect. Lower therefore signals higher potency in that assay.

One test has as its target EP4 receptor (Homo sapiens, UniProt P35408). The test is described as follows: EP4 receptor binding assay (3H-PGE2 SPA). Conditions: EP4 receptor membranes, 20 nM 3H-PGE2, pH 6.0, 2 hrs room temperature. Here is the method: Compounds of the invention were tested in an EP4 receptor binding assay of the following protocol.
In test [1] the target is T1, HEK293-EBNA cells transfected with pCEP4-hEP2 receptors (Homo sapiens, UniProt P43116).
T1 construct: expressed in transfected cells; host or cells: HEK293-EBNA
T1 sequence (P43116 whole entry): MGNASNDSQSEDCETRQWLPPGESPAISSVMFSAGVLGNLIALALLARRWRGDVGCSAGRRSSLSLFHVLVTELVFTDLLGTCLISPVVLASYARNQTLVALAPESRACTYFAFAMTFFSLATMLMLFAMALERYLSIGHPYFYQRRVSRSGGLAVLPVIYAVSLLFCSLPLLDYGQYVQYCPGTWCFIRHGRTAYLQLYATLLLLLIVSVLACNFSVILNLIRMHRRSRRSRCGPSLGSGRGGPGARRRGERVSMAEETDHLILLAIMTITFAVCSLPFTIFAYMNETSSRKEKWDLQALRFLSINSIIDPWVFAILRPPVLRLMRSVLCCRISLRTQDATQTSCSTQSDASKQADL
The test is described as follows: EP2 cAMP assay. Conditions: total cAMP, 1 hour 37° C. Format: cell-based. Here is the method: (§1) Compounds of the invention were tested in a total cAMP assay as follows. HEK293-EBNA cells transfected with pCEP4-hEP2 receptors were seeded in 96 well opaque plate (Costar #3917) at 4×10^4 cells per well in 100 μl of culture medium (D-MEM/F12 supplemented with 10% FBS, […] L-glutamine, and 250 μg/ml of hygromycin; all from GibcoBRL) and incubated at 37° C. After overnight incubation, the medium was removed from each well and replaced with 45 μl of assay medium consisted of phenol red free D-MEM/F-12, 0.1% BSA (GibcoBRL) and 0.1 mM3-isobutyl-1-methyl-xanthine (Sigma). After 15 minutes of incubation at 37° C., 16-16-dimethyl PGE-2 or compounds at desired concentrations in 20 μl of assay medium were added to cells and further incubated at 37° C. for 1 hour. Total cAMP (intra- and extra-cellular) was measured by using a cAMP-screen ELISA System (Tropix, #CS1000).
(Changes in cAMP serve as a functional read-out for many G protein-coupled receptors.)

A further test concerns the target EP2 receptor (Homo sapiens, UniProt P43116). Description: EP2 receptor binding assay (3H-PGE2 SPA). As to conditions: EP2 receptor membranes, 20 nM 3H-PGE2, pH 6.0, 2 hrs room temperature. As to the method: Compounds of the invention were tested in an EP2 receptor binding assay of the following protocol. As referred to herein, the term a “standard EP2 receptor binding assay” designates the following protocol.

The target of test [2] is T2, HEK293-EBNA cells transfected with pCEP4-hEP4 receptors (Homo sapiens, UniProt P35408).
T2 construct: expressed in transfected cells; host or cells: HEK293-EBNA
T2 sequence (P35408 whole entry): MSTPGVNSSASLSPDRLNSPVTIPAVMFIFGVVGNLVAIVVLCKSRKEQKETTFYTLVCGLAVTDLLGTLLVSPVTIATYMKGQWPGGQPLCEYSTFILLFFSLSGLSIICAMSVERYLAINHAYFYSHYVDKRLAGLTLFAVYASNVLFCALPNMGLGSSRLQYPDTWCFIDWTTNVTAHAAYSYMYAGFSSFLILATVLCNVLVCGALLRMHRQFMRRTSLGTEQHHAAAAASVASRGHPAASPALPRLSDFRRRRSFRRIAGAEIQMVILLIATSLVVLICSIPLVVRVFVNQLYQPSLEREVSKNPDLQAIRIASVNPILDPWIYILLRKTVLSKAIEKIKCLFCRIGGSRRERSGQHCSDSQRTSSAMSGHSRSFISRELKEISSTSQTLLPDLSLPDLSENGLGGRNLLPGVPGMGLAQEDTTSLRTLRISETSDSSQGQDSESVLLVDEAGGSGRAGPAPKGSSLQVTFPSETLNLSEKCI
The test is described as follows: EP4 cAMP assay. Format: cell-based. Conditions: total cAMP, 1 hour 37° C. As to the method: as §1, with “pCEP4-hEP4” for “pCEP4-hEP2”, “compounds of the invention” for “compounds”
In Table II, the tested compound is identified both by the corresponding synthetic Example number above as well as structure of the tested compound.

Sequence of EP2 receptor (P43116 whole entry): as the sequence (P43116 whole entry) above
Sequence of EP4 receptor (P35408 whole entry): as the sequence (P35408 whole entry) above

In turn, `O=C(O)c1ccc(CCN2C(=O)CCN2CCC(O)Cc2ccc3c(c2)OCO3)cc1` (centres unmarked) [Example 28, 4-(2-{2-[4-(1,3-benzodioxol-5-yl)-3-hydroxybutyl]-5-oxopyrazolidin-1-yl}ethyl)benzoic acid] came in with an inhibition constant Ki at EP4 receptor of 0.376 µM.
In turn, `CC(C)CCC(C)(O)CCCN1CCC(=O)N1CCc1ccc(C(=O)O)cc1` (centres unmarked) [Example 11, 4-{2-[2-(4-hydroxy-4,7-dimethyloctyl)-5-oxopyrazolidin-1-yl]ethyl}benzoic acid] registered an EC50 in test [1] of 10 µM. Besides, affinity on EP2 receptor was put at a Ki of 20.2 µM.
Molecule `CCCCC(O)(CC)CCCN1CCC(=O)N1CCc1ccc(C(=O)O)cc1` (centres unmarked) [Example 9, 4-{2-[2-(4-ethyl-4-hydroxyoctyl)-5-oxopyrazolidin-1-yl]ethyl}benzoic acid] displayed an EC50 in test [1] of 0.461 µM. Also, affinity on EP2 receptor was put at a Ki of 0.495 µM.
In the case of `CCCCCC(O)CCCN1CCC(=O)N1CCc1ccc(C(=O)O)cc1` (stereo in doubt) [Example 14, 4-{2-[2-((4S)-hydroxynonyl)-5-oxopyrazolidin-1-yl]ethyl}benzoic acid], the EC50 in test [1] turned out to be 0.566 µM; in test [2], 0.01 µM. For the same molecule, the Ki at EP2 receptor was 1.86 µM; on EP4 receptor, 0.566 µM.
For the molecule `CCCCCC(O)C#CCN1CCC(=O)N1CCc1ccc(C(=O)O)cc1` (centres unmarked) [Example 2, 4-{2-[2-(4-hydroxynon-2-ynyl)-5-oxopyrazolidin-1-yl]ethyl}benzoic acid], the EC50 in test [1] is greater than 50 µM. For the same molecule, the inhibition constant (Ki) on EP2 receptor was greater than 50 µM.
Consider `CCCCCC(O)CCCN1CCC(=O)N1CCc1ccc(C(=O)O)cc1` (centres unmarked) [Example 3, 4-{2-[2-(4-hydroxynonyl)-5-oxopyrazolidin-1-yl]ethyl}benzoic acid], for which, in test [1], the EC50 was 1.3 µM. For the same molecule, the figures for the Ki at EP2 receptor and on EP4 receptor were 2.44 µM and 2 µM, respectively.
On to `CC(C)CC(O)CCN1CCC(=O)N1CCc1ccc(C(=O)O)cc1` (centres unmarked) [Example 12, 4-{2-[2-(3-hydroxy-5-methylhexyl)-5-oxopyrazolidin-1-yl]ethyl}benzoic acid], for which the EC50 in test [1] is 15 µM; in test [2], 0.277 µM. The Ki on EP2 receptor was 4.41 µM; at EP4 receptor, 2 µM.
Regarding `CCCCCC(O)CCN1CCC(=O)N1CCc1ccc(C(=O)O)cc1` (centres unmarked) [Example 1, 4-[2-(2-(3-hydroxyoctyl)-5-oxopyrazolidin-1-yl)ethyl]benzoic acid], the EC50 in test [1] is 0.595 µM; in test [2], 0.005 µM. For the same molecule, the Ki at EP2 receptor was 2.2 µM; on EP4 receptor, 0.25 µM.
The molecule `CCCCCC(C)(O)CCCN1CCC(=O)N1CCc1ccc(C(=O)O)cc1` (centres unmarked) [Example 16, 4-{2-[2-(4-Hydroxy-4-methylnonyl)-5-oxopyrazolidin-1-yl]-ethyl}-benzoic acid] showed an EC50 in test [1] of 1.6 µM. Moreover, on EP2 receptor, the Ki is 0.475 µM.
On to `CC(c1ccccc1)C(O)CCN1CCC(=O)N1CCc1ccc(C(=O)O)cc1` (stereo in doubt) [Example 27, 4-(2-{2-[(4S)-3-hydroxy-4-phenylpentyl]-5-oxopyrazolidin-1-yl}ethyl)benzoic acid], for which the Ki on EP2 receptor was 7.09 µM; on EP4 receptor it was 0.095 µM.
In turn, `CCCCCC(O)CCCN1CCC(=O)N1CCc1ccc(C(=O)O)cc1` (stereo in doubt) [Example 15, 4-{2-[2-((4R)-hydroxynonyl)-5-oxopyrazolidin-1-yl]ethyl}benzoic acid] gave an EC50 in test [1] of 1.5 µM. Further, the Ki on EP2 receptor was 3.26 µM.
As to `CCCC(C)(O)CCCN1CCC(=O)N1CCc1ccc(C(=O)O)cc1` (centres unmarked) [Example 10, 4-{2-[2-(4-hydroxy-4-methylheptyl)-5-oxopyrazolidin-1-yl]ethyl}benzoic acid], the EC50 in test [1] was 5.3 µM. The same molecule had a Ki on EP2 receptor of 28.9 µM.
Take `O=C(O)c1ccc(CCN2C(=O)CCN2CCC(O)Cc2cccc(Cl)c2)cc1` (centres unmarked) [Example 29, 4-(2-{2-[4-(3-chlorophenyl)-3-hydroxybutyl]-5-oxopyrazolidin-1-yl}ethyl)benzoic acid]: the inhibition constant (Ki) was 5.69 µM at EP2 receptor and 0.018 µM at EP4 receptor.
For `CCCCC(O)CCCN1CCC(=O)N1CCc1ccc(C(=O)O)cc1` (centres unmarked) [Example 6, 4-{2-[2-(4-hydroxyoctyl)-5-oxopyrazolidin-1-yl]ethyl}benzoic acid], the midpoint of the response in test [1], the EC50, lay at 1.4 µM. On EP2 receptor, this molecule gave a Ki of 5.66 µM.
As to `CC(C)CC(O)CCCN1CCC(=O)N1CCc1ccc(C(=O)O)cc1` (centres unmarked) [Example 7, 4-{2-[2-(4-hydroxy-6-methylheptyl)-5-oxopyrazolidin-1-yl]ethyl}benzoic acid], the 50% effective concentration (EC50) in test [1] was 9.7 µM. The same molecule had a Ki at EP2 receptor of 28.6 µM.
Turning to `O=C(O)c1ccc(CCN2C(=O)CCN2CCC(O)Cc2cccc(F)c2)cc1` (centres unmarked) [Example 25, 4-(2-{2-[4-(3-fluorophenyl)-3-hydroxybutyl]-5-oxopyrazolidin-1-yl}ethyl)benzoic acid], the Ki on EP2 receptor was 6.29 µM; on EP4 receptor, 0.036 µM.
The molecule `CCCCCC(O)/C=C\CN1CCC(=O)N1CCc1ccc(C(=O)O)cc1` (centres unmarked) [Example 4, 4-(2-{2-[(2Z)-4-hydroxynon-2-enyl]-5-oxopyrazolidin-1-yl}ethyl)benzoic acid] showed a concentration for a half-maximal effect (EC50) in test [1] of 2.6 µM. Moreover, on EP2 receptor, the affinity corresponds to a Ki of 17.2 µM.
`O=C(O)c1ccc(CCN2C(=O)CCN2CCC(O)Cc2ccccc2)cc1` (centres unmarked) [Example 21, 4-{2-[2-(3-hydroxy-4-phenylbutyl)-5-oxopyrazolidin-1-yl]ethyl}benzoic acid]: the Ki at EP2 receptor was 6.2 µM; at EP4 receptor, 0.068 µM.
The molecule `CCCC(C)C(O)CCN1CCC(=O)N1CCc1ccc(C(=O)O)cc1` (centres unmarked) [Example 13, 4-{2-[2-(3-hydroxy-4-methylheptyl)-5-oxopyrazolidin-1-yl]ethyl}benzoic acid] registered an EC50 in test [1] of 5 µM. Besides, the Ki is 2.76 µM at EP2 receptor and 6 µM at EP4 receptor.
For the molecule `CCC1(C(O)CCCN2CCC(=O)N2CCc2ccc(C(=O)O)cc2)CCC1` (centres unmarked) [Example 19, 4-(2-{2-[4-(1-ethylcyclobutyl)-4-hydroxybutyl}-5-oxopyrazolidin-1-yl}ethyl)benzoic acid], the EC50 in test [1] was 0.393 µM. This molecule also registered a Ki at EP2 receptor of 0.75 µM.
In the case of `O=C(O)c1ccc(CCN2C(=O)CCN2CCC(O)Cc2cccc(OC(F)(F)F)c2)cc1` (centres unmarked) [Example 24, 4-[2-(2-{3-hydroxy-4-[3-(trifluoromethoxy)phenyl]butyl}-5-oxopyrazolidin-1-yl)ethyl]benzoic acid], the Ki is 2.83 µM on EP2 receptor and 0.059 µM on EP4 receptor.
Turning to `CCCCCC(O)/C=C/CN1CCC(=O)N1CCc1ccc(C(=O)O)cc1` (centres unmarked) [Example 5, 4-(2-{2-[(2E)-4-hydroxynon-2-enyl]-5-oxopyrazolidin-1-yl}ethyl)benzoic acid], in test [1], the EC50 is 12.5 µM. This molecule showed a Ki at EP2 receptor of 25.9 µM.
In the case of `CC(c1ccccc1)C(O)CCN1CCC(=O)N1CCc1ccc(C(=O)O)cc1` (stereo in doubt) [Example 30, 4-(2-{2-[(4R)-3-hydroxy-4-phenylpentyl]-5-oxopyrazolidin-1-yl}ethyl)benzoic acid], the results for the Ki on EP2 receptor and on EP4 receptor were 5.13 µM and 0.093 µM, respectively.
The molecule `O=C(O)c1ccc(CCN2C(=O)CCN2CCCC(O)C2(CC3CC3)CCC2)cc1` (centres unmarked) [Example 18, 4-[2-(2-{4-[1-(cyclopropylmethyl)cyclobutyl]-4-hydroxybutyl}-5-oxopyrazolidin-1-yl)ethyl]benzoic acid] gave a concentration for a half-maximal effect (EC50) in test [1] of 0.578 µM. For the same molecule, the affinity at EP2 receptor corresponds to a Ki of 0.61 µM.
Molecule `CCCC(C)C(O)CCCN1CCC(=O)N1CCc1ccc(C(=O)O)cc1` (centres unmarked) [Example 8, 4-{2-[2-(4-hydroxy-5-methyloctyl)-5-oxopyrazolidin-1-yl]ethyl}benzoic acid] had an EC50 in test [1] of 2.1 µM. The molecule further gave a Ki at EP2 receptor of 5.16 µM.
On to `O=C(O)c1ccc(CCN2C(=O)CCN2CCC(O)Cc2cccc(C(F)(F)F)c2)cc1` (centres unmarked) [Example 26, 4-[2-(2-{3-hydroxy-4-[3-(trifluoromethyl)phenyl]butyl}-5-oxopyrazolidin-1-yl)ethyl]benzoic acid], for which, in test [1], the EC50 was 17.6 µM. On EP2 receptor, this molecule showed a Ki of 6.65 µM.
